Experimental data taken from the supplement of paper PMC10307832.

Compound: CCN(CC)CCNC(=O)c1c(C)[nH]c(/C=C2\C(=O)Nc3ccc(F)cc32)c1C [Sunitinib]
Assay: relative viability (nuclei count vs DMSO), 5 days (fraction); higher = more cells survive
Method in brief: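 For viability, nuclei in each treated well were divided by nuclei in vehicle wells and the median across plates was taken. Lung cancer cell lines in 1536-well plates were pinned with five library-drug doses (not always all listed) spaced by √10, cultured 5 days without medium change, and imaged at 4× after Hoechst staining, with plates passing only at control CV below 25% and at least one doubling.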

| Cell Line | relative viability (0.02 µM) | relative viability (0.06325 µM) | relative viability (0.2 µM) | relative viability (0.6325 µM) | relative viability (2 µM) |
| --- | --- | --- | --- | --- | --- |
| NCI-H647 | 0.991 | 1.14 | 1.03 | 0.989 | 0.956 |
| NCI-H1944 | 0.914 | 1.09 | 1.15 | 1.05 | 1.1 |
| NCI-H3122 | 0.986 | 1.05 | 0.996 | 1.01 |  |
| HCC-15 | 0.988 | 1.11 |  | 1.04 | 1 |
| NCI-H1993 | 0.963 | 0.992 | 1.08 | 0.915 | 0.98 |
| NCI-H1755 |  |  | 1.04 | 1.03 | 1.05 |
| NCI-H2342 | 0.96 | 1.09 | 1.03 | 1.01 | 1.11 |
| COR-L 105 | 0.876 | 1.05 | 0.952 |  | 0.889 |
| SK-LU-1 | 0.972 | 1.19 | 1.1 | 1.13 | 0.959 |
| NCI-H2228 | 1.02 | 1.21 | 1.07 | 0.973 | 0.962 |
| NCI-H1395 | 1.02 | 1.01 | 0.925 | 0.991 | 0.945 |
| NCI-H1648 | 0.767 |  | 1.15 | 1.13 | 1.17 |
| NCI-H650 | 0.906 | 1.1 | 1.01 | 1.03 | 1.08 |
| A549 | 0.945 | 1.1 | 1.23 | 1.06 | 0.972 |
| LC-2-ad | 0.945 | 1.01 | 1.09 | 1 | 0.781 |
| EMC-BAC-2 | 0.935 | 1.11 | 1.18 | 1.01 | 1.07 |
| EBC-1 | 0.965 |  | 1.12 | 1.09 | 1.01 |
| NCI-H1975 | 0.911 |  | 1.06 | 0.963 | 0.855 |
| NCI-H2405 | 1.01 | 1.06 | 1.05 | 1.07 | 1.01 |

| Cell Line | relative viability (0.02 µM) | relative viability (0.06325 µM) | relative viability (0.2 µM) | relative viability (0.6325 µM) | relative viability (2 µM) |
| --- | --- | --- | --- | --- | --- |
| NCI-H23 | 0.849 | 1.15 | 1.07 | 1.17 | 0.938 |
| LXF-289 | 0.949 | 0.986 | 1.04 | 1.02 | 1.01 |
| NCI-H1437 | 1.03 | 1.03 |  | 0.996 | 1.09 |
| NCI-H727 | 0.942 | 1.17 | 1.23 | 1.09 | 0.859 |
| RERF-LC-KJ | 0.956 | 1.06 | 1.08 | 0.992 |  |
| PC-3 [JPC-3] | 1.12 | 1.05 | 0.981 | 1.02 | 1.02 |
| PC-14 | 1.01 | 1.01 | 1.13 | 1.02 | 0.898 |
| 201T | 0.938 | 0.999 | 1.02 | 0.989 | 0.987 |
| SW 1573 | 0.947 | 1.17 | 1.26 | 1.11 | 0.905 |
| NCI-H441 | 0.863 |  | 1.17 | 1.11 | 1.12 |
| NCI-H1355 | 0.962 | 1.07 | 1.12 | 1.02 | 1.05 |
| UMC-11 | 0.872 | 1.11 | 1.01 | 0.995 | 0.937 |
| LK-2 | 0.936 | 1.02 | 1.22 | 0.905 | 1.01 |
| Calu-6 | 0.954 | 1.04 | 1.09 | 1.06 | 1.07 |
| NCI-H2170 | 0.909 | 0.993 | 1.05 | 0.953 | 0.959 |
| HCC-827 | 1.01 | 1.06 | 1.05 | 1.05 | 1.04 |
| NCI-H460 |  |  | 1.05 | 0.995 | 1.08 |
| NCI-H1915 | 0.943 | 1.05 | 1.02 | 1.03 | 1.07 |
| EPLC-272H | 0.841 | 1.07 | 0.939 | 0.98 | 0.795 |
